Data reported in article PMC10385664, “Projection of Target Drug Particle Size in Oral Formulations Using the Refined Developability Classification System (rDCS)” (Pharmaceutics, 2023).
Several values for one entry are separate records, joined by “and”; a condition that tells them apart may be missing. Equal values may be shown once.

Legend:
[1] = cited from earlier work
[2] = Powder dissolution method for estimating IDR in FaSSIF V1; assay type: physicochemical; details: FaSSIF V1, 37 °C, 100 rpm
Experimental: Istradefylline disks could not be prepared because disk compression led to a change in solid state. The IDR of istradefylline was therefore measured (n = 4) according to a published powder dissolution method for estimating rotating disk IDRs. Istradefylline was weighed into an assay vial containing a magnetic crossbar stirrer, in an amount corresponding to approximately twice the amount needed to saturate the medium. The vials were placed in a heating block and 20 mL pre-heated FaSSIF V1 (37.0 ± 0.5 °C) was added to start the dissolution experiments. The medium was stirred at 100 rpm and concentrations were measured with in situ UV-spectroscopy using fiber optic dip probes until a plateau in the dissolution profile was reached. The vials were protected from light with aluminum foil during the entire experiment. […]
The concentration‐time curves for IDR determination were recorded with in situ UV‐spectroscopy using fiber optic dip probes. […] The buffer was stirred at 100 rpm and spectra were recorded approximately 1 minut e after addition of the stock solution. […]
Second derivatives of the UV spectra were used to establish the calibration curves. Multiple wavelength ranges were evaluated, and calibration curves were accepted for further investigation when linear […]

Compound	solubility at pH 1.0 [1]	IDR FaSSIF V1 (powder dissolution method) [2]
Cc1ncc(OC[C@@]2(c3cccc(F)c3)C[C@H]2C(=O)Nc2ccc(F)cn2)c(C)n1 [Lemborexant, lemborexant]	1.6 mg/mL	–
CCn1c(=O)c2c(nc(/C=C/c3ccc(OC)c(OC)c3)n2C)n(CC)c1=O [Istradefylline, istradefylline]	–	0.302 ± 0.010 µg/min/cm^2 and 0.302 ± 0.010 ^3 µg/min/cm^2
